Tests used:
α-amylase = molecular target: T1, α-amylase (Sus scrofa, UniProt P00690); test: Alpha-amylase inhibition assay (DNS method); assay type: biochemical; settings: in vitro, triplicate; read-out: IC50 = α-Amylase µM ± SEM
T1 sequence (P00690 16-511): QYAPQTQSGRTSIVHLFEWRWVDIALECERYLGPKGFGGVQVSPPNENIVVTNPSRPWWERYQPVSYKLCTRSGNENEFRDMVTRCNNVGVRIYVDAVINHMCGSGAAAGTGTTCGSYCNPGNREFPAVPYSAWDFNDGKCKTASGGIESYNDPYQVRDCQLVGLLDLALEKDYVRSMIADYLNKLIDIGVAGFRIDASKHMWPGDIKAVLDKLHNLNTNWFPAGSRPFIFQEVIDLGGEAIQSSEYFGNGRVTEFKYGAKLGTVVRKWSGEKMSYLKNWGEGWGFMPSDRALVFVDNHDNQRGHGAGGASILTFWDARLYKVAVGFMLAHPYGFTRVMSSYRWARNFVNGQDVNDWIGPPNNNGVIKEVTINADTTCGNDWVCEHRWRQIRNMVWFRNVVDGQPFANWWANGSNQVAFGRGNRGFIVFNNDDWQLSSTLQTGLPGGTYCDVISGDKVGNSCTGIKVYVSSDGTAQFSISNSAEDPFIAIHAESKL
Protocol: The in vitro alpha-amylase study was conducted and the enzyme was sourced from Merck (Sigma-Aldrich, Hamburg, Germany). The inhibitory activity of the synthesized compounds against α-amylase was evaluated using a standard protocol with slight modifications [44]. In brief, 250 µL of the test compound (prepared at varying concentrations, 50–250 µg/mL) was mixed with 250 µL of starch solution [1% (w/v)] and 250 µL of α-amylase solution (1 U/mL). The reaction mixture was incubated at 20 °C for 3 min, after which enzymatic activity was terminated by the addition of 500 µL of dinitrosalicylic acid (DNS) color reagent. The mixture was then heated in a boiling water bath at 85 °C for 15 min, cooled to room temperature for 5 min, and diluted with 4.5 mL of distilled water to a final volume of 6.0 mL. Absorbance was measured at 540 nm using a UV-visible spectrophotometer. […] The percentage inhibition was calculated and all experiments were conducted in triplicate.

α-glucosidase = α-glucosidase (Saccharomyces cerevisiae, UniProt P53341); assay type: biochemical; settings: in vitro, triplicate; read-out: IC50 = α-Glucosidase µM ± SEM
Sequence of α-glucosidase (P53341 whole entry): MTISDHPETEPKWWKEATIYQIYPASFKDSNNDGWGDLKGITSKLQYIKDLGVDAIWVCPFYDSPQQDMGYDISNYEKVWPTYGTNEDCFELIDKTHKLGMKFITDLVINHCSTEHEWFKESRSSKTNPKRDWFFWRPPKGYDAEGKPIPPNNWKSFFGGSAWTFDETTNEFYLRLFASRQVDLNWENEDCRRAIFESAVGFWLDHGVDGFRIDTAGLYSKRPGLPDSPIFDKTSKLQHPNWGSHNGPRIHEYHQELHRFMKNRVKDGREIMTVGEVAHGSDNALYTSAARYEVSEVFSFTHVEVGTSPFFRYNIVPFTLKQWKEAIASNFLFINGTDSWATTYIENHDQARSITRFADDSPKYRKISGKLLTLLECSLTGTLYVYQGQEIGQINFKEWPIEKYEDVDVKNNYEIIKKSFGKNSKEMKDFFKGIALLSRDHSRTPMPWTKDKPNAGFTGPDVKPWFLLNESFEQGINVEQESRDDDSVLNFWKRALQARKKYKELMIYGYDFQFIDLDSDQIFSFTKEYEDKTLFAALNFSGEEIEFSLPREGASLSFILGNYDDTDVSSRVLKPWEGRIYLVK
Protocol: The in vitro alpha-glucosidase study was conducted and the enzyme was sourced from Merck (Sigma-Aldrich). The α-glucosidase inhibitory activity was determined following a standard microplate-based method [45]. In each well of a 96-well plate, 35 µL of phosphate buffer (pH 6.8), 31 µL of the test compound solution (50–250 µg/mL), and 18 µL of p-nitrophenyl-α-D-glucopyranoside (pNPG, substrate) were added and pre-incubated at 37 °C for 5 min. The reaction was initiated by the addition of 16 µL of α-glucosidase (0.15 U/mL in phosphate buffer), resulting in a total assay volume of 100 µL. After incubation, the reaction was terminated by adding 100 µL of sodium carbonate (200 mM), and absorbance was recorded at 405 nm using a microplate reader. […] The percentage inhibition was calculated according to the following equation: % inhibition=(Abs control − Abs sample)/Abs control×100
All assays were performed in triplicate to ensure reproducibility.

5-(2,4-Dihydroxy-5-methylphenyl)-6H-imidazo{1,2-b]{1,2,4]triazole-2-carboxylic acid [Compound 7]
IC50 (α-amylase): 7.1 ± 0.3 µM | IC50 (α-glucosidase): 7.7 ± 0.2 µM

Source: PMC12472753, “Fused Imidazotriazole-Based Therapeutics: A Multidisciplinary Study Against Diabetes-Linked Enzymes Alpha-Amylase and Alpha-Glucosidase Using In Vitro and In Silico Methods” (Pharmaceuticals, 2025)
